Data on 79 compounds can be found in the METLIN SMRT retention time set (Domingo-Almenara et al. 2019).

Each structure is given as a SMILES string.

The nature of the data set: gradient 5% acetonitrile 3 min, to 50% in 2 min, to 85% in 15 min, held 3 min, 100 µL/min. The conditions noted are these: column: Zorbax Extend-C18 2.1 x 50 mm; eluents: water / acetonitrile, 0.1% formic acid. Summed up: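 Pure standards were analyzed in mixtures of ~100 molecules using HPLC coupled to a quadrupole time-of-flight mass spectrometer, in both positive and negative ionization mode. Separation used a Zorbax Extend-C18 column (2.1 × 50 mm, 1.8 μm) at 100 μL/min, with water and acetonitrile each containing 0.1% formic acid. Dead and dwell volumes were 40 μL and 900 μL, and data were collected over 3 months. Retention time was read from computationally picked adduct peaks, each inspected manually.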
Take `COC(=O)c1cccc(NC(=O)Nc2c(-c3cccnc3)[nH]c3ccccc23)c1`: the RP-LC retention time amounted to 667 s.

`CCC(=O)Nc1ccc(S(=O)(=O)NCCc2ccc(N(C)C)cc2)c(C)c1` gave an RP-LC retention time of 570 s.

The compound `CN(C)CCNC(=O)C1CCN(c2nc3ccc(-c4ccccc4F)nc3s2)CC1` gave an RP-LC retention time of 658 s.

The compound `CCNc1cc(N2CCC(CCC(=O)NCc3ccc(F)c(Cl)c3)CC2)ncn1` had an RP-LC retention time of 682 s. Under `COc1cc(NC(=O)Cn2nc3nc(N4CCCC4)ccn3c2=O)cc(OC)c1` stands 643 s; under `Cc1ccc(CNS(=O)(=O)c2cc3c(s2)CCN(C(=O)C2CC2)C3)cc1`, 847 s; under `Cc1cccc(C)c1NC(=O)N1CC(n2cnnc2-c2ccccc2)C1`, 715 s. In turn, `COc1ccc(OC)c(NC(=O)NC2CCN(c3ccc(F)cc3)C2=O)c1` (centres undefined) came in with an RP-LC retention time of 716 s. Compound `CN(CCNC(=O)C1CCCN(c2nnc(-n3cccc3)s2)C1)C1CCCCC1` (centres undefined) displayed an RP-LC retention time of 650 s.

With `CC(C)CNC(=O)CCc1nc2ccccc2n(CC(=O)NC(C)CCc2ccccc2)c1=O` (centres undefined), the RP-LC retention time is 869 s. Regarding `O=C1Cc2cc(NC(=O)Nc3ccc(Cl)c(Cl)c3)ccc2N1`, the RP-LC retention time stood at 742 s. As to `Cc1ccc(-c2cn3c(CC(=O)NCc4ccccc4)csc3n2)cc1C`, the RP-LC retention time came out at 826 s. Turning to `CCCCn1cnc2c(-c3ccccc3)cn(CC(=O)NCc3ccco3)c2c1=O`, the RP-LC retention time stood at 922 s. As for `O=C(NC1CCCCC1)N1CCC(c2noc(COCC3CC3)n2)CC1`, the RP-LC retention time was determined as 830 s. With `CCn1c(=O)sc2cc(S(=O)(=O)N3CCC(C(=O)N4CCN(C)CC4)CC3)ccc21`, the RP-LC retention time came to 600 s. Under `CCc1cc(N2CCN(C(=O)c3cc(OC)c(OC)c(OC)c3)CC2)nc2nncn12` stands 593 s. On to `Cc1ccc(-c2nnc(N3CCC(C(=O)NCC4CCCCC4)CC3)o2)cc1`, for which the RP-LC retention time came out at 959 s. Consider `CC1=C(c2ccccc2)S(=O)(=O)N=C1N1CCCN(C(=O)c2cccc(Cl)c2)CC1`, for which the RP-LC retention time worked out at 862 s. Under `CC(=O)N1CCc2cc(C(=O)N3CCOCC3)ccc21` stands 607 s; under `O=C(Nc1ccccc1)N1CCC(n2cnc3cc(Cl)ccc3c2=O)CC1`, 784 s; under `CCc1nnc(-c2ccc(=O)n(CC(=O)NCc3ccc(F)c(Cl)c3)c2)o1`, 713 s. Under `Cc1cc(NC(=O)CSc2ccc(-n3cccn3)nn2)on1` stands 666 s. `CC1CCCN(CCCNC(=O)CCCN2C(=O)CCn3nc(-c4cccn4C)cc32)C1` (centres undefined): the RP-LC retention time is 614 s. On to `Cc1oc(-c2ccc(C(=O)N3CCN(C)CC3)cc2)nc1CS(=O)(=O)c1ccccc1`, for which the RP-LC retention time was determined as 608 s. Regarding `COc1ccc(-n2ccc(=O)c(-c3nc(-c4ccccc4OC)no3)n2)cc1`, the RP-LC retention time was 776 s. For the compound `CC(C)c1cccc(NC(=O)Cn2c(=O)cc(-c3nc(C4CC4)no3)c3ccccc32)c1`, the RP-LC retention time turned out to be 1080 s. `COc1ccc(S(=O)(=O)N2C[C@@H]3C[C@H](NC(=O)c4cccs4)[C@H]2C3)cc1Cl` registered an RP-LC retention time of 792 s. Take `O=C(COc1ccccc1)N1CC(n2cc(COCC3CC3)nn2)C1`: the RP-LC retention time stood at 717 s.

`COc1ccc(N2CCN(c3nnc(-c4nnc(C)o4)c4ccccc34)CC2)cc1` gave an RP-LC retention time of 744 s. `Cc1nc(-c2cnccn2)nc2c1CCC(=O)N2Cc1ccncc1`: the RP-LC retention time came to 510 s.

`Cc1cc(NC(=O)C(=O)NCC2(c3cccs3)CC2)no1`: the RP-LC retention time turned out to be 802 s.

For the compound `CCOC(=O)c1ccc(N2C(=O)CC(NCCCN3CCN(CC)CC3)C2=O)cc1` (centres undefined), the RP-LC retention time was 636 s. Under `O=C(Nc1ccc(OC2CCNCC2)nc1)C1(c2ccccc2)CC1` stands 646 s; under `COc1ccc(S(=O)(=O)N2CCC(n3cnnc3-c3ccccc3)CC2)cc1Cl`, 815 s. Consider `O=C(Nc1nc2ccccc2n1CCN1CCOCC1)c1ccc(Cl)cc1`, for which the RP-LC retention time was 633 s. Compound `CCc1ccccc1NC(=O)N1CCC(n2cnc3c(C)cccc3c2=O)CC1` showed an RP-LC retention time of 853 s. `COc1ccc(-n2c(=O)c(C(=O)Nc3ccc(F)cc3Cl)c(O)c3cccnc32)cc1` displayed an RP-LC retention time of 1320 s. Under `O=C(NCc1ccc2c(c1)OCO2)C1CCN(c2nc3ccccc3o2)CC1` stands 754 s. The compound `Cc1ccc(CN2CCC3(CC2)CC(O)(c2ccccn2)CCO3)nc1` (centres undefined) yielded an RP-LC retention time of 539 s. On to `Cc1c(OC(C)C(=O)O)ccc2c1oc(=O)c1ccccc12` (centres undefined), for which the RP-LC retention time is 847 s.

The compound `CNC(=O)c1n[nH]c2c1CC(C)CC2` (centres undefined) yielded an RP-LC retention time of 642 s.

Take `COc1ncc(C(=O)NCc2ccccc2C(F)(F)F)cn1`: the RP-LC retention time worked out at 783 s. Turning to `CC1(C(=O)NCCCN2CCc3ccccc3C2)CCCCC(=O)N1` (centres undefined), the RP-LC retention time came out at 578 s. In the case of `Cn1nc(C(=O)N2CCCC2)c2c1CCN(C(=O)Nc1ccc(F)cc1F)C2`, the RP-LC retention time worked out at 718 s. Compound `CCOc1ccccc1C(=O)NCC1CCN(Cc2ccccn2)CC1` yielded an RP-LC retention time of 561 s. In the case of `O=C(CCSc1ccc(F)cc1)Nc1nnc(-c2ccco2)o1`, the RP-LC retention time turned out to be 729 s. With `Cc1cc(N2CCOCC2)nc(N2CCN(S(=O)(=O)c3cc(C(C)C)ccc3C)CC2)n1`, the RP-LC retention time amounted to 803 s. Compound `O=C(/C=C/c1ccccc1)Nc1cccc(-c2nnc3n2CCCC3)c1` yielded an RP-LC retention time of 708 s. Turning to `Cc1sc2nc(SCC(=O)Nc3ccc(S(N)(=O)=O)cc3)nc(N)c2c1C`, the RP-LC retention time was 682 s. The compound `CCOc1ccccc1NC(=O)c1cnc2c(c1)c(=O)n(C)c(=O)n2-c1ccc(OC)cc1` came in with an RP-LC retention time of 961 s. For the compound `CCN1C(=O)c2cc(S(=O)(=O)NCc3ccccc3)ccc2Oc2cccnc21`, the RP-LC retention time is 986 s. As for `Cc1cc(S(=O)(=O)N2CCN(C3CCN(CCC(C)C)C3=O)CC2)ccc1Cl` (centres undefined), the RP-LC retention time was determined as 773 s. Take `O=C(NCCCN1CCCCC1)c1ccc2ccnc(N3CCN(c4ccc(Cl)cc4)CC3)c2c1`: the RP-LC retention time was determined as 645 s. In turn, `CC(C(=O)NCc1ccccc1F)n1c(=O)c(C(F)(F)F)nc2ccccc21` (centres undefined) had an RP-LC retention time of 1020 s. For `O=C(NC1CCCCC1)c1ccc2c(c1)N(C(=O)c1ccc(F)cc1)CC2`, the RP-LC retention time is 944 s. The compound `O=C(NCCCN1CCc2ccccc2C1)c1sc2ncccc2c1-n1cccc1` displayed an RP-LC retention time of 679 s. `Cc1sc2ccn(Cc3ccc(F)cc3)c(=O)c2c1C(=O)NCCCN1CCOCC1` had an RP-LC retention time of 629 s. Under `CC(Oc1ccc(=O)n(-c2ccc(F)cc2)n1)C(=O)Nc1ccccc1Cl` (centres undefined) stands 826 s; under `Cc1ccc(C2Cn3cnc(C(=O)N4CCC(C(=O)NCc5cccs5)CC4)c3CO2)cc1` (centres undefined), 756 s; under `COc1ccc(CCNS(=O)(=O)c2cccc(-c3nc(-c4ccccc4)no3)c2)cc1OC`, 1070 s.

The compound `Cc1nc2ncnn2c(N2CCOCC2)c1C` gave an RP-LC retention time of 625 s.

The compound `O=C(Cc1c[nH]c2ccccc12)N1CCCN(c2cc(-c3ccc(Br)cc3)[nH]n2)CC1` registered an RP-LC retention time of 722 s.

The compound `COc1ccccc1-c1noc(C2CCCN2C(=O)Nc2ccc(C)c(C)c2)n1` (centres undefined) displayed an RP-LC retention time of 925 s.

`Cc1nn(C)c(C)c1S(=O)(=O)N1CCc2c(c(-c3nnc(-c4ccc(F)cc4)o3)nn2C)C1` displayed an RP-LC retention time of 805 s.

`Cc1sc(-c2cc(C(F)(F)F)[nH]n2)cc1S(=O)(=O)N1CCN(c2ccccc2)CC1`: the RP-LC retention time turned out to be 1110 s.

Compound `Cc1ccc(C)c(-n2ccn(Cc3nc(-c4ccccc4)no3)c(=O)c2=O)c1` displayed an RP-LC retention time of 886 s.

The compound `Cc1oc2ccn(C)c(=O)c2c1C(=O)NCc1cccc(Br)c1` gave an RP-LC retention time of 947 s. For `CCOC(=O)Cc1csc(NC(=O)CN2CC(c3nc(C4CC4)no3)C2)n1`, the RP-LC retention time came to 575 s. Turning to `Cc1ccc(-c2nc3cnccn3c2Nc2ccc(C)c(Cl)c2)cc1`, the RP-LC retention time turned out to be 1080 s.

As to `CC1CS(=O)(=O)N(c2cccc(C(=O)N3CCCc4ccccc43)c2)C1=O` (centres undefined), the RP-LC retention time amounted to 781 s.

Turning to `CCNc1nc(C)cc(N2CCN(S(=O)(=O)c3ccc(Cl)cc3)CC2)n1`, the RP-LC retention time is 735 s.

As for `Cc1ccc(-c2nc(NC(=O)Cc3csc(-c4ccccc4)n3)sc2C)cc1`, the RP-LC retention time came out at 1250 s.

As for `O=c1c2nc(-c3ccc(F)cc3F)cn2ccn1-c1ccc(F)cc1`, the RP-LC retention time stood at 862 s.

Take `Cc1ccc(NC(=O)CSc2nccc(N3CCCCCC3)n2)cc1F`: the RP-LC retention time was 738 s. Regarding `COc1ccccc1CNC(=O)CN1CCc2[nH]c3c(C)c(Cl)ccc3c(=O)c2C1`, the RP-LC retention time amounted to 649 s. Under `COCCNc1c(-c2ccc(C)cc2)nc2sc(C(=O)NC3CC3)c(C)n12` stands 766 s. Under `CCOc1cccc(CNC(=O)c2nc(N3CCSCC3)c3cnn(C)c3n2)c1` stands 854 s; under `COCC(=O)N1CCC2(CCC2O)CC1` (centres undefined), 577 s; under `COc1ccc(-c2cn3c(CC(=O)N4CCN(c5ccccc5F)CC4)csc3n2)cc1OC`, 780 s.
